Assay results published in patent publication US7186743B2, “Substituted pyrazolyl compounds for the treatment of inflammation” (Pharmacia Corporation, priority 2001, dated 2007).
Where a name gives a salt, the structure may show the parent alone. Read-outs that look alike come from different tables or passages of the source.

Target: T1, IKK2 (Homo sapiens, UniProt O14920)
T1 construct: made in house; host or cells: insect cells (baculovirus, pFastBac; SF9)
T1 sequence (O14920 1-756): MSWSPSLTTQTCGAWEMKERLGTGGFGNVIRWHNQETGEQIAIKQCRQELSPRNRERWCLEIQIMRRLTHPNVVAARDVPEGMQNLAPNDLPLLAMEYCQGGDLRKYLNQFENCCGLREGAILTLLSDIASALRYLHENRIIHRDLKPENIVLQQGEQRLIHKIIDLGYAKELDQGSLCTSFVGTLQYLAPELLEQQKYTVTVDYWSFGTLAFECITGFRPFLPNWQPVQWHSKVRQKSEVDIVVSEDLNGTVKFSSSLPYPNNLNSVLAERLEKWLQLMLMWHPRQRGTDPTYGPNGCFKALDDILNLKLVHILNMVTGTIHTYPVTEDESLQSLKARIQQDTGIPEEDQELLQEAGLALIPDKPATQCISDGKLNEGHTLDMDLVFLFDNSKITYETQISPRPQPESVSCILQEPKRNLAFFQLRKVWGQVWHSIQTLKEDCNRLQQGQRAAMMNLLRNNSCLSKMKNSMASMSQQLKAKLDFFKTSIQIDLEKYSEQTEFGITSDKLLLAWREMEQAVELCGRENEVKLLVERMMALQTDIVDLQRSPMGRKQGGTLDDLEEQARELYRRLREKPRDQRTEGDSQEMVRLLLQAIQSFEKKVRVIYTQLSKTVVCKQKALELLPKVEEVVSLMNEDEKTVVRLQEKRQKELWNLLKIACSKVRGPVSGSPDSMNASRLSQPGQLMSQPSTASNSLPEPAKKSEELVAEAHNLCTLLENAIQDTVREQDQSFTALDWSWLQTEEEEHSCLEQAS
Assay: IKKβ Resin Enzyme Assay (IKK2 resin)
Assay type: biochemical
Description: cDNAs of human IKK1 and IKK2 were amplified by reverse transcriptase-polymerase chain reaction from human placental RNA (Clonetech). hIKK1 was subcloned into pFastBac HTa (Life Technologies) and expressed as N-terminal His6-tagged fusion protein. The hIKK2 cDNA was amplified using a reverse oligonucleotide primer which incorporated the peptide sequence for a FLAG-epitope tag at the C-terminus of the IKK2 coding region ([…]). The hIKK2:FLAG cDNA was subcloned into the baculovirus vector pFastBac. The rhIKK2 ([…]) mutant was constructed in the same vector used for wild type rhIKK2 using a QuikChange™ mutagenesis kit (Stratagene). Viral stocks of each construct were used to infect insect cells grown in 40 L suspension culture. […] Cell lysates were stored at −80° C. until purification of the recombinant proteins was undertaken as described below.
A 10-liter culture of baculovirus-expressing IKK2 tagged with FLAG peptide was centrifuged and the cell pellet (MOI=0.1 and I=72 hrs) was re-suspended in buffer A. These cells were microfluidized, and centrifuged at 100,000×g for 45 min. Supernatant was passed over a G-25 column equilibrated with Buffer A. Protein peak was collected and incubated with anti-FLAG affinity resin on a rotator overnight in buffer B. The resin was washed in batch with 10–15 bed volumes of buffer C. Washed resin was poured into a column and rhIKK2 homodimer was eluted using 5 bed volumes of buffer B containing FLAG peptide. 5 mM DTT, 0.1% NP-40 and BSA (concentrated to 0.1% in final amount) was added to the eluted enzyme before concentrating in using an Amicon membrane with a molecular weight cut-off of 30 kDa. Enzyme was aliquoted and stored at −80° C.
IKKβ kinase activity was measured using a biotinylated IκBα peptide ([…]32-Gly-Leu-Asp-Ser36-Met-Lys-Asp-Glu-Glu) (American Peptide Co.). […] ATP (Amersham) (about 1×10^5 cpm), 1 μM ATP (Sigma), 1 mM DTT (Sigma), 2 mM MgCl2 (Sigma), 2 mM MnCl2 (Sigma), 10 mM NaF (Sigma), 25 mM Hepes (Sigma) buffer, pH 7.6 and 20 μl enzyme solution and 10 ul inhibitor in a final volume of 50 μl. After incubation at 25° C. for 30 min, 150 μl resin (Dowex anion-exchange resin AG1X8 200–400 mesh) in 900 mM formate, pH 3.0 was added to each well to stop the reaction. Resin was allowed to settle for one hour and 50 ul of supernatant was removed to a Micolite-2 flat bottom plate (Dynex). 150 μl of scintillation fluid (Microscint 40) (Packard) was added to each well. Incorporation of [γ-^33P] ATP was measured using a Top-Count NXT (Packard).

[1] = Table 11, read-out: IKK2 Resin IC50
[2] = Table 6, read-out: IKK2 Resin IC 50
[3] = Table 3, read-out: IKK Resin IC50
[4] = Table 18, read-out: IKK2 Resin IC50
[5] = Table 2, read-out: IKK Resin IC50
[6] = Table 4, read-out: IKK2 Resin IC50
[7] = Table 23, read-out: IKK2 Resin IC50

In the case of `CC(=O)CCc1ccc(-n2nc(C(N)=O)c3c2-c2cc(NC(=O)c4ccccc4Cl)ccc2CC3)cc1` [Example 296, 8-[(2-chlorobenzoyl)amino]-1-[4-(3-oxobutyl)phenyl]-4,5-dihydro-1H-benzo[g]indazole-3-carboxamide], the IC50 [1] is reported as no more than 1000 nM.

For `COc1cc(Cl)c(C(=O)Nc2ccc3c(c2)-c2c(c(C(N)=O)nn2-c2ccc(F)cc2)CC3)cc1OC` [Example 239, 8-[(2-chloro-4,5-dimethoxybenzoyl)amino]-1-(4-fluorophenyl)-4,5-dihydro-1H-benzo[g]indazole-3-carboxamide], the IC50 [2] was no more than 1000 nM.

For `CS(=O)(=O)c1ccc(-n2nc(C(N)=O)c3c2-c2cc(NC(=O)c4ccc(C#N)cc4)ccc2CC3)cc1` [Example 144, 8-[(4-cyanobenzoyl)amino]-1-[4-(methylsulfonyl)phenyl]-4,5-dihydro-1H-benzo[g]indazole-3-carboxaniide], the IC50 [3] was no more than 1000 nM.

Work on `NCCCS(=O)(=O)c1ccc(-n2nc(C(N)=O)c3c2-c2cc(NC(=O)c4ccccc4Cl)ccc2CC3)cc1` [Example 404, 1-{4-[(3-aminopropyl)sulfonyl]phenyl}-8-[(2-chlorobenzoyl)amino]-4,5-dihydro-1H-benzo[g]indazole-3-carboxamide hydrochloride] yielded an IC50 [4] of no more than 1000 nM.

With `CS(=O)(=O)c1ccc(-n2nc(C(N)=O)c3c2-c2cc(NC(=O)c4ccccc4C(F)(F)F)ccc2CC3)cc1` [Example 93, 1-[4-(methylsulfonyl)phenyl]-8-{[2-(trifluoromethyl)benzoyl]amino}-4,5-dihydro-1H-benzo[g]indazole-3-carboxamide] the IC50 [5] was no more than 1000 nM.

Molecule `CS(=O)(=O)c1ccc(C(=O)Nc2ccc3c(c2)-c2c(c(C(N)=O)nn2-c2ccc(F)cc2)CC3)c(Cl)c1` [Example 226, 8-{[2-chloro-4-(methylsulfonyl)benzoyl]amino}-1-(4-fluorophenyl)-4,5-dihydro-1H-benzo[g]indazole-3-carboxamide] has an IC50 [2] of no more than 1000 nM.

For `CCS(=O)(=O)c1ccc(-n2nc(C(N)=O)c3c2-c2cc(NC(=O)c4cccnc4Cl)ccc2CC3)cc1` [Example 396, 8-{[(2-chloropyridin-3-yl)carbonyl]amino}-1-[4-(ethylsulfonyl)phenyl]-4,5-dihydro-1H-benzo[g]indazole-3-carboxamide], the IC50 [4] was no more than 1000 nM.

`NC(=O)c1nn(-c2ccc3c(c2)OCO3)c2c1CCc1ccc(NC(=O)c3ccccc3Br)cc1-2` [Example 177, 1-(1,3-benzodioxol-5-yl)-8-[(2-bromobenzoyl)amino]-4,5-dihydro-1H-benzo[g]indazole-3-carboxamide] showed an IC50 [6] of no more than 1000 nM.

In the case of `CS(=O)(=O)c1ccc(-n2nc(C(N)=O)c3c2-c2cc(NC(=O)c4cc(Cl)ccc4[N+](=O)[O-])ccc2CC3)cc1` [Example 139, 8-[(5-chloro-2-nitrobenzoyl)amino]-1-[4-(methylsulfonyl)phenyl]-4,5-dihydro-1H-benzo[g]indazole-3-carboxamide], the IC50 [3] is reported as no more than 1000 nM.

`CN1CCN(c2ccc(Cl)c(C(=O)Nc3ccc4c(c3)-c3c(c(C(N)=O)nn3-c3ccc(S(C)(=O)=O)cc3)CC4)c2)CC1` [Example 126, 8-{[2-chloro-5-(4-methylpiperazin-1-yl)benzoyl]amino}-1-[4-(methylsulfonyl)phenyl]-4,5-dihydro-1H-benzo[g]indazole-3-carboxamide] was tested, and the IC50 [5] was no more than 1000 nM.

Work on `COc1cc(Cl)c(C(=O)Nc2ccc3c(c2)-c2c(c(C(N)=O)nn2-c2ccc4c(c2)OCO4)CC3)cc1OC` [Example 174, 1-(1,3-benzodioxol-5-yl)-8-[(2-chloro-4,5-dimethoxybenzoyl)amino]-4,5-dihydro-1H-benzo[g]indazole-3-carboxamide] yielded an IC50 [6] of no more than 1000 nM.

In the case of `CS(=O)(=O)c1ccc(-n2nc(C(N)=O)c3c2-c2cc(NC(=O)c4cc(F)c(F)cc4[N+](=O)[O-])ccc2CC3)cc1` [Example 149, 8-[(4,5-difluoro-2-nitrobenzoyl)amino]-1-[4-(methylsulfonyl)phenyl]-4,5-dihydro-1H-benzo[g]indazole-3-carboxamide], the IC50 [3] is reported as no more than 1000 nM.

With `NC(=O)/C=C/c1ccc(-n2nc(C(N)=O)c3c2-c2cc(NC(=O)c4ccccc4Cl)ccc2CC3)cc1` [Example 292, 1-{4-[(1E)-3-amino-3-oxoprop-1-enyl]phenyl}-8-[(2-chlorobenzoyl)amino]-4,5-dihydro-1H-benzo[g]indazole-3-carboxamide] the IC50 [1] was no more than 1000 nM.

For `NC(=O)c1nn(-c2ccc(F)cc2)c2c1CCc1ccc(NC(=O)c3cccc(Cl)c3Cl)cc1-2` [Example 238, 8-[(2,3-dichlorobenzoyl)amino]-1-(4-fluorophenyl)-4,5-dihydro-1Hbenzo[g]indazole-3-carboxamide], the IC50 [2] was no more than 1000 nM.

For `NC(=O)c1nn(-c2ccc(/C=C/CCO)cc2)c2c1CCc1ccc(NC(=O)c3ccccc3Cl)cc1-2` [Example 298, 8-[(2-chlorobenzoyl)amino]-1-{4-[(1E)-4-hydroxybut-1-enyl]phenyl}-4,5-dihydro-1H-benzo[g]indazole-3-carboxamide], the IC50 [1] was no more than 1000 nM.

`N#Cc1ccc(-n2nc(C(N)=O)c3c2-c2cc(NC(=O)c4ccccc4Cl)ccc2CC3)cc1` [Example 369, 8-[(2-chlorobenzoyl)amino]-1-(4-cyanophenyl)-4,5-dihydro-1H-benzo[g]indazole-3-carboxamide] gave an IC50 (read-out: IKK-2 resin IC50) of no more than 1000 nM.

`NC(=O)c1nn(-c2cccc(F)c2)c2c1CCc1ccc(NC(=O)c3cccnc3Cl)cc1-2` [Example 345, 8-{[(2-chloropyridin-3-yl)carbonyl]amino}-1-(3-fluorophenyl)-4,5-dihydro-1H-benzo[g]indazole-3-carboxamide] gave an IC50 (Table 14, read-out: IKK2 Resin IC50) of no more than 1000 nM.

`NC(=O)c1nn(-c2ccc(F)cc2)c2c1CCc1ccc(NC(=O)CNC3CCC3)cc1-2` [Example 452, 8-[(N-cyclobutylglycyl)amino]-1-(4-fluorophenyl)-4,5-dihydro-1H-benzo[g]indazole-3-carboxamide] gave an IC50 [7] of no more than 1000 nM.

With `NC(=O)c1nn(-c2cccc(O)c2)c2c1CCc1ccc(NC(=O)c3ccccc3Cl)cc1-2` [Example 262, 8-[(2-chlorobenzoyl)amino]-1-(3-hydroxyphenyl)-4,5-dihydro-1H-benzo[g]indazole-3-carboxamide] the IC50 (Table 8, read-out: IKK2 Resin IC50) was no more than 1000 nM.

Work on `CC(C)CNCC(=O)Nc1ccc2c(c1)-c1c(c(C(N)=O)nn1-c1ccc3c(c1)OCO3)CC2` [Example 451, 1-(1,3-benzodioxol-5-yl)-8-[(N-isobutylglycyl)amino]-4,5-dihydro-1H-benzo[g]indazole-3-carboxamide] yielded an IC50 [7] of no more than 1000 nM.

For `CS(=O)(=O)c1ccc(-n2nc(C(N)=O)c3c2-c2cc(NC(=O)c4cccc(Cl)c4F)ccc2CC3)cc1` [Example 104, 8-[(3-chloro-2-fluorobenzoyl)amino]-1-[4-(methylsulfonyl)phenyl]-4,5-dihydro-1H-benza[g]indazole-3-carboxamide], the IC50 [5] was no more than 1000 nM.

`CS(=O)(=O)c1ccc(-n2nc(C(N)=O)c3c2-c2cc(NC(=O)c4ccccc4[N+](=O)[O-])ccc2CC3)cc1` [Example 102, 1-[4-(methylsulfonyl)phenyl]-8-[(2-nitrobenzoyl)amino]-4,5-dihydro-1H-benzo[g]indazole-3-carboxamide] gave an IC50 [5] of no more than 1000 nM.
